Type in all cases: cell-based
The subject of test [1] is Pseudomonas aeruginosa XNWB 0008. Nature of the test: MIC assay of test compounds combined with imipenem (4 μg/mL). The following applies: imipenem 4 μg/mL fixed. The essentials: (§1)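 We recorded each combination MIC according to CLSI after culturing plates at 35±2 °C for 16-20 h. The inoculum consisted of colonies suspended in 0.9% NaCl (OD600 0.1-0.15) and diluted 300-fold with 1.1×CAMHB, mixed with compound dilutions and the partner β-lactam.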

Test [2] relates to Acinetobacter baumannii XNWB 0007. The test is described as above. The following applies: imipenem 4 μg/mL fixed. The essentials:
as §1

Test [3] concerns Klebsiella pneumoniae XNWB 0002. The test is described as above. The following applies: imipenem 4 μg/mL fixed. The essentials: as §1
For test [4], the system named is Klebsiella pneumoniae XNWB 0005. The test is described as above. The following applies: imipenem 4 μg/mL fixed. The essentials:
as §1

The subject of test [5] is Klebsiella pneumoniae XNWB 0004. The test is described as above. The following applies: imipenem 4 μg/mL fixed. The essentials:
as §1

For test [6], the system named is Klebsiella pneumoniae XNWB 0003. Described as above. The following applies: imipenem 4 μg/mL fixed. The essentials:
as §1

Test [7] relates to Klebsiella pneumoniae XNWB 0001. The test is described as above. The following applies: imipenem 4 μg/mL fixed. The essentials: as §1
Test [8] deals with Klebsiella pneumoniae XNWB 0006. The test is described as above. The following applies: imipenem 4 μg/mL fixed. The essentials:
as §1

Test [9] concerns Pseudomonas aeruginosa XNWB 0008. Nature of the test: MIC assay of test compounds combined with ceftazidime (8 μg/mL). The following applies: ceftazidime 8 μg/mL fixed. The essentials: as §1
The subject of test [10] is Acinetobacter baumannii XNWB 0007. The description is as above. The following applies: ceftazidime 8 μg/mL fixed. The essentials: as §1
For test [11], the system named is Klebsiella pneumoniae XNWB 0002. The description is as above. The following applies: ceftazidime 8 μg/mL fixed. The essentials:
as §1

The test system of test [12] is Klebsiella pneumoniae XNWB 0005. The description is as above. The following applies: ceftazidime 8 μg/mL fixed. The essentials: as §1
Test [13] has as its system Klebsiella pneumoniae XNWB 0004. The test is described as above. The following applies: ceftazidime 8 μg/mL fixed. The essentials:
as §1

Test [14] concerns Klebsiella pneumoniae XNWB 0003. The description is as above. The following applies: ceftazidime 8 μg/mL fixed. The essentials: as §1
The test system of test [15] is Klebsiella pneumoniae XNWB 0001. Described as above. The following applies: ceftazidime 8 μg/mL fixed. The essentials: as §1
Test [16] deals with Klebsiella pneumoniae XNWB 0006. The description is as above. The following applies: ceftazidime 8 μg/mL fixed. The essentials: as §1

Structures can show the parent of a compound that is named as a salt.

`N=C(N)NCC(O)c1cc([C@@H]2CC3(CC3)[C@@H]3CN2C(=O)N3OS(=O)(=O)O)no1` (stereo partly drawn) [Example 38, (1R,4S)-4-(5-(2-guanidyl-1-hydroxyethyl)isoxazol-3-yl)-6-oxo-5,7-diazaspiro[bicycle [3.2.1]octane-2,1′-cyclopropan]-7-yl sulfate]: the “The minimum concentration of test compounds combined with imipenem (4 μg/mL) for bacteriostasis” value in test [1] was “A (A: <8 μg/mL)”; in [2], “C (C: 16-128 μg/mL)”; in test [3], “A (A: <8 μg/mL)”; in [4], “A (A: <8 μg/mL)”; in [5], “A (A: <8 μg/mL)”; in test [6], “A (A: <8 μg/mL)”. The “The minimum concentration of test compounds combined with imipenem (4 μg/mL) for bacteriostasis” value in test [7] and in [8] was “A (A: <8 μg/mL)” in each case. Also, the “The minimum concentration of test compounds combined with ceftazidime (8 μg/mL) for bacteriostasis” value in test [9] was “B (B: 8-16 μg/mL)”; in [10], “C (C: 16-128 μg/mL)”; in [11], “A (A: <8 μg/mL)”; in test [12] it was “A (A: <8 μg/mL)”; in [13] it was “A (A: <8 μg/mL)”; in test [14] it was “A (A: <8 μg/mL)”. Besides, the “The minimum concentration of test compounds combined with ceftazidime (8 μg/mL) for bacteriostasis” value in [15] and in [16] was “A (A: <8 μg/mL)” in each case.

For the compound `N[C@@H]1CCC(c2nnc([C@@H]3CC4(CC4)[C@@H]4CN3C(=O)N4OS(=O)(=O)O)o2)C1` (stereo in doubt) [Example 18, (1R,4S)-4-(5-((1R,3R)-3-aminocyclopentyl)-1,3,4-oxadiazol-2-yl)-6-oxo-5,7-diazaspiro [bicyclo[3.2.1]octane-2,1′-cyclopropan]-7-yl sulfate], the “The minimum concentration of test compounds combined with imipenem (4 μg/mL) for bacteriostasis” value in [1] is reported as “A (A: <8 μg/mL)”; in [2], “B (B: 8-16 μg/mL)”; in test [3] it was “A (A: <8 μg/mL)”; in test [4] it was “A (A: <8 μg/mL)”; in [5] it was “A (A: <8 μg/mL)”; in test [6] it was “A (A: <8 μg/mL)”. For the same compound, the “The minimum concentration of test compounds combined with imipenem (4 μg/mL) for bacteriostasis” value in test [7] and in [8] was “A (A: <8 μg/mL)” in each case. Moreover, the “The minimum concentration of test compounds combined with ceftazidime (8 μg/mL) for bacteriostasis” value in test [9] is recorded as “B (B: 8-16 μg/mL)”; in test [10] it was “C (C: 16-128 μg/mL)”; in test [11], “A (A: <8 μg/mL)”; in test [12], “A (A: <8 μg/mL)”; in test [13], “B (B: 8-16 μg/mL)”; in test [14], “A (A: <8 μg/mL)”. The “The minimum concentration of test compounds combined with ceftazidime (8 μg/mL) for bacteriostasis” value in test [15] and in [16] was “A (A: <8 μg/mL)” each time.

Regarding `CNCc1cc([C@@H]2CC3(CC3)[C@@H]3CN2C(=O)N3OS(=O)(=O)O)no1` [Example 32], the “The minimum concentration of test compounds combined with imipenem (4 μg/mL) for bacteriostasis” value in test [1] is recorded as “C (C: 16-128 μg/mL)”; in test [2], “C (C: 16-128 μg/mL)”; in test [3] it was “A (A: <8 μg/mL)”; in test [4], “A (A: <8 μg/mL)”; in test [5], “A (A: <8 μg/mL)”; in test [6], “A (A: <8 μg/mL)”. Also, the “The minimum concentration of test compounds combined with imipenem (4 μg/mL) for bacteriostasis” value in test [7] and in test [8] was “A (A: <8 μg/mL)” throughout. Also, the “The minimum concentration of test compounds combined with ceftazidime (8 μg/mL) for bacteriostasis” value is listed as “C (C: 16-128 μg/mL)” in test [9]; “C (C: 16-128 μg/mL)” in [10]; “A (A: <8 μg/mL)” in test [11]; “C (C: 16-128 μg/mL)” in [12]; “C (C: 16-128 μg/mL)” in test [13]; “B (B: 8-16 μg/mL)” in test [14]. For the same compound, the “The minimum concentration of test compounds combined with ceftazidime (8 μg/mL) for bacteriostasis” value in test [15] and in test [16] was “B (B: 8-16 μg/mL)” in each case.

Take `NC1(Cc2nnc([C@@H]3CC4(CC4)[C@@H]4CN3C(=O)N4OS(=O)(=O)O)o2)CC1` [Example 21, (1R,4S)-4-(5-((1-aminocyclopropyl)methyl)-1,3,4-oxadiazol-2-yl)-6-oxo-5,7-diazaspiro [bicyclo[3.2.1]octane-2,1′-cyclopropan]-7-yl sulfate]: the “The minimum concentration of test compounds combined with imipenem (4 μg/mL) for bacteriostasis” value was “C (C: 16-128 μg/mL)” in test [1]; “C (C: 16-128 μg/mL)” in test [2]; “A (A: <8 μg/mL)” in [3]; “A (A: <8 μg/mL)” in [4]; “A (A: <8 μg/mL)” in [5]; “A (A: <8 μg/mL)” in test [6]. The “The minimum concentration of test compounds combined with imipenem (4 μg/mL) for bacteriostasis” value in test [7] and in test [8] was “A (A: <8 μg/mL)” each time. Moreover, the “The minimum concentration of test compounds combined with ceftazidime (8 μg/mL) for bacteriostasis” value in test [9] is “C (C: 16-128 μg/mL)”; in [10], “C (C: 16-128 μg/mL)”; in test [11], “A (A: <8 μg/mL)”; in test [12], “B (B: 8-16 μg/mL)”; in test [13] it was “B (B: 8-16 μg/mL)”; in test [14], “A (A: <8 μg/mL)”. The “The minimum concentration of test compounds combined with ceftazidime (8 μg/mL) for bacteriostasis” value in test [15] and in test [16] was “A (A: <8 μg/mL)” in each case.

In the case of `O=C1N2C[C@H](N1OS(=O)(=O)O)C1(CC1)C[C@H]2c1cc(C2CCCNC2)on1` (stereo partly drawn) [Example 44, (1R,4S)-6-oxo-4-(5-(piperidin-3-yl)isoxazol-3-yl)-5,7-diazaspiro[bicyclo[3.2.1]octane-2,1′-cyclopropan]-7-yl sulfate], the “The minimum concentration of test compounds combined with imipenem (4 μg/mL) for bacteriostasis” value in test [1] is “A (A: <8 μg/mL)”; in [2], “C (C: 16-128 μg/mL)”; in test [3], “A (A: <8 μg/mL)”; in test [4], “A (A: <8 μg/mL)”; in [5], “A (A: <8 μg/mL)”; in test [6] it was “A (A: <8 μg/mL)”. Also, the “The minimum concentration of test compounds combined with imipenem (4 μg/mL) for bacteriostasis” value in test [7] and in test [8] was “A (A: <8 μg/mL)” each time. Further, the “The minimum concentration of test compounds combined with ceftazidime (8 μg/mL) for bacteriostasis” value is on record as “B (B: 8-16 μg/mL)” in test [9]; “C (C: 16-128 μg/mL)” in test [10]; “A (A: <8 μg/mL)” in test [11]; “A (A: <8 μg/mL)” in [12]; “B (B: 8-16 μg/mL)” in test [13]; “A (A: <8 μg/mL)” in [14]. Also, the “The minimum concentration of test compounds combined with ceftazidime (8 μg/mL) for bacteriostasis” value in test [15] and in test [16] was “A (A: <8 μg/mL)” each time.

Source of the values: patent US11078202B2, “β-lactamase inhibitor and use thereof” (priority 2018, dated 2021).
